From paper PMC4812296, “A chemical family-based strategy for uncovering hidden bioactive molecules and multicomponent interactions in herbal medicines” (Scientific Reports, 2016)

Biological target: T1, thrombin (Bos taurus, UniProt P00735)
T1 construct: gene F2
Assay: chromogenic S-2238 hydrolysis assay, bovine plasma thrombin
Format: biochemical

SMILES	IC50 [µM]
C[C@H]1COC2=C1C(=O)C(=O)c1c2ccc2c1CCCC2(C)C (single isomer, unassigned) [peak 16, Cryptotanshinone]	102 ± 4
Cc1coc2c1C(=O)C(=O)c1c-2ccc2c(C)cccc12 [peak 17, Tanshinone I]	333 ± 28
Cc1coc2c1C(=O)C(=O)c1c-2ccc2c1CCCC2(C)C [peak 18, Tanshinone IIA]	39 ± 1
Cc1cccc2c3c(ccc12)C1=C(C(=O)C3=O)[C@@H](C)CO1 (single isomer, unassigned) [peak 15, Dihydrotanshinone I]	92 ± 5
